Results on 3 compounds are retold here after patent US20230117606A1, “COMPOSITIONS AND METHODS FOR THE TREATMENT OF INTRACELLULAR BACTERIAL INFECTIONS” (Endolytix Technology, Inc., priority 2020, published 2023).

This experiment relates to M. abscessus. Description: Cell growth assay of M. abscessus with ABIα and antibiotic, Fractional Inhibitory Concentration (FIC) index. It is filed as cell-based, Mycobacterium abscessus. The note with it: antibiotic in combination with ABIα; FIG. 5.
Turning to `NCC[C@H](O)C(=O)N[C@@H]1C[C@H](N)[C@@H](O[C@H]2O[C@H](CN)[C@@H](O)[C@H](O)[C@H]2O)[C@H](O)[C@H]1O[C@H]1O[C@H](CO)[C@@H](O)[C@H](N)[C@H]1O` [amikacin], the “effect by FIC index on attenuation of M. abscessus growth” value (shortened to “effect by FIC index on attenuation”) is recorded as “synergistic effects”.

For the compound `C[C@@H](O)[C@H]1C(=O)N2C(C(=O)[O-])=C(SC3Cn4cnc[n+]4C3)[C@H](C)[C@H]12` (stereo partly drawn) [biapenem], the “effect by FIC index on attenuation” value was “synergistic effects”. As to `CO[C@@]1(NC(=O)Cc2cccs2)C(=O)N2C(C(=O)O)=C(COC(N)=O)CS[C@@H]21` [cefoxitin], the “effect by FIC index on attenuation” value is on record as “synergistic effects”.
